“Also recorded” adds a separate entry of the source. Read-outs that look alike come from different tables or passages of the source.
What was measured:
[1] = target: T1, UMP kinase from B. subtilis (Bacillus subtilis, UniProt O31749); conditions: for stabilization of UMP kinase activity on storage (in words): crude bacterial extract, UTP ≧2 mM, ATP and GTP 2 mM each, various temperatures
T1 sequence (O31749 1-240): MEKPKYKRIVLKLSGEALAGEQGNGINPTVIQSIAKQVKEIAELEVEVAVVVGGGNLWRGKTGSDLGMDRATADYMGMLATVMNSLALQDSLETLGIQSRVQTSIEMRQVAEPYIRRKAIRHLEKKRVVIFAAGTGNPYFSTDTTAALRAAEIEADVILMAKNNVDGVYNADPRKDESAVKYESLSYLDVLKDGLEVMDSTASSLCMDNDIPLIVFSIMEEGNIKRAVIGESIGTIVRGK

[2] = target: T1, UMP kinase from B. subtilis; assay: UMP kinase activity, coupled spectrophotometric assay; assay type: biochemical
Method: Purification of UMP kinase and activity assays. E. coli overproducing the UMP kinase from B. subtilis was disrupted by sonication in 50 mM Tris-HCl (pH 7.4) and 2 mM UTP. The bacterial extract was heated for 10 min at 65° C., then the precipitated proteins were removed by centrifugation at 10,000 g for 30 min. The supernatant was concentrated by ultrafiltration to about 10 mg of protein/ml, then applied to a Sephacryl S-300 HR column (2.5×110 cm) equilibrated with 50 mM Tris-HCl (pH 7.4), 0.1 M NaCl and 2 mM UTP at a flow rate of 10 ml/h. […] Fractions of 1 ml of protein solution were sampled in Eppendorf tubes and stored at different temperatures between 20° C. and −80° C. The UMP kinase activity was determined at 30° C. using a coupled spectrophotometric assay (0.5 ml final volume) on an Eppendorf PCP6121 photometer [Blondin, 1994 #977]. The “standard” reaction medium contained 50 mM Tris-HCl (pH 7.4), 50 mM KCl, 2 mM MgCl2, 1 mM phosphoenolpyruvate, 0.2 mM NADH, 2 mM ATP, 0.5 mM GTP and 2 units each of lactate dehydrogenase, pyruvate kinase and NDP kinase. The crude or pure preparation of UMP kinase was then added, followed two minutes later by 1.3 mM UMP. The decrease in absorbance at 334 nm (between 0.03 and 0.3/min) was then recorded and corrected for secondary reactions, occurring in the absence of UMP. One unit of UMP kinase corresponds to 1 μmol of product formed per min.
The UMP kinase activity was determined at 30° C. using a coupled spectrophotometric assay (0.5 ml final volume) on an Eppendorf PCP6121 photometer. The “standard” reaction medium contained 50 mM Tris-HCl (pH 7.4), 50 mM KCl, 2 mM MgCl2, 1 mM phosphoenolpyruvate, 0.2 mM NADH, 1 or 2 mM ATP, 0.5 mM GTP and 2 units each of lactate dehydrogenase, pyruvate kinase and NDP kinase. The pure preparation of UMP kinase was then added, followed by 0.3 or 1 mM UMP. The decrease in absorbance at 334 nm (between 0.03 and 0.3/min) was then recorded and corrected for secondary reactions occurring in the absence of UMP. One unit of UMP kinase corresponds to 1 μmol of product formed per min.

[3] = target: E. coli UMP kinase (Escherichia coli, UniProt P0A7E9); conditions: cited from earlier work
[4] = target: UMP kinase from H. influenzae (Haemophilus influenzae, UniProt P43890); assay: UMP kinase activity, coupled spectrophotometric assay; assay type: biochemical
Chain of UMP kinase from H. influenzae (P43890 whole entry): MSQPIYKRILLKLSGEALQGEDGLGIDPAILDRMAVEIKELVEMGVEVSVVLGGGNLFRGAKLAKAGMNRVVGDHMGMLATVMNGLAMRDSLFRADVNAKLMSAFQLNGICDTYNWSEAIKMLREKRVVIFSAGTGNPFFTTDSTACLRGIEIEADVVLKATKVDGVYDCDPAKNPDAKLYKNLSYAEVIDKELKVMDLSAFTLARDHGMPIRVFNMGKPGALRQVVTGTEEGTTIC
Method: The UMP kinase activity was determined at 30° C. using a coupled spectrophotometric assay (0.5 ml final volume) on an Eppendorf PCP6121 photometer. The “standard” reaction medium contained 50 mM Tris-HCl (pH 7.4), 50 mM KCl, 2 mM MgCl2, 1 mM phosphoenolpyruvate, 0.2 mM NADH, 1 or 2 mM ATP, 0.5 mM GTP and 2 units each of lactate dehydrogenase, pyruvate kinase and NDP kinase. The pure preparation of UMP kinase was then added, followed by 0.3 or 1 mM UMP. The decrease in absorbance at 334 nm (between 0.03 and 0.3/min) was then recorded and corrected for secondary reactions occurring in the absence of UMP. One unit of UMP kinase corresponds to 1 μmol of product formed per min. The specific activities of the recombinant enzymes are the following: […]

[5] = target: T2, UMP kinase from M. tuberculosis (Mycobacterium tuberculosis, UniProt P9WHK5); assay type: biochemical
T2 sequence (P9WHK5 whole entry): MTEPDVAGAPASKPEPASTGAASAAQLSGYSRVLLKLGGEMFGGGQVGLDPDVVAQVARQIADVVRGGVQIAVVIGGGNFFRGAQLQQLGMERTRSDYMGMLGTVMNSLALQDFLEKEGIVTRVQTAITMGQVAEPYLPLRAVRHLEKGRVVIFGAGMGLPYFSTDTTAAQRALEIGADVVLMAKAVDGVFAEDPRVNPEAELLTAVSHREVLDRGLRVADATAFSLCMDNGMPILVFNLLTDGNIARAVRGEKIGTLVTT

[6] = target: T1, UMP kinase from B. subtilis; assay: Thermal stability of UMP kinase (FIG. 1)
Method: UMP kinase from B. subtilis overproduced in strain BL21 (DE3)/pDIA17 (over 30% of total E. coli proteins) was recovered in the supernatant after cell breakage in 50 mM Tris-HCl (pH 7.4) and centrifugation. The activity of recombinant UMP kinase declined rapidly upon storage at either room temperature, +4° C. or under frozen state. After 24 h, only 15% of initial UMP kinase activity was recovered. EDTA, thiols, bovine serum albumin, or antiprotease compounds alone or in mixture were ineffective. […] UTP increased the thermal stability of bacterial UMP kinase (FIG. 1), the half maximal inactivation being shifted from 42° C. in the absence of UTP to over 70° C. in the presence of nucleotide.

[7] = target: T2, UMP kinase from M. tuberculosis; conditions: in the presence of UTP
[8] = target: T3, E. coli UMP kinase (Escherichia coli, UniProt P0A7E9); assay: UMP kinase activity and activation by guanine nucleotides (comparison enzyme); assay type: biochemical; conditions: under identical conditions (presence of GTP)
T3 sequence (P0A7E9 whole entry, looked up): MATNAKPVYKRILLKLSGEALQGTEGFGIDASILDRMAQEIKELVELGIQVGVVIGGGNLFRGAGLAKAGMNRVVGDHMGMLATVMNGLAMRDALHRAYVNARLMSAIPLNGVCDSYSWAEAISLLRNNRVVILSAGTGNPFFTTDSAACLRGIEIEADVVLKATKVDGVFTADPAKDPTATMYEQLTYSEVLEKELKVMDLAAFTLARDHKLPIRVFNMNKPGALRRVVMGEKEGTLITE

Molecule: O=C(O)CN(CCN(CC(=O)O)CC(=O)O)CC(=O)O [EDTA]
- stabilization of UMP kinase activity on storage (in words) [1]: ineffective

Molecule: Nc1ncnc2c1ncn2[C@H]1C[C@H](O)[C@@H](COP(=O)(O)OP(=O)(O)OP(=O)(O)O)O1 [dATP]
- phosphate donor ability ([2]; compared with ATP): as good as ATP as phosphate donor

Molecule: Nc1nc2c(ncn2[C@@H]2O[C@H](COP(=O)(O)O)[C@@H](O)[C@H]2O)c(=O)[nH]1 [GMP]
- activation of UMP kinase by guanine nucleotides (in words) [2]: totally ineffective; also recorded: insensitive
- activation of E. coli UMP kinase (in words) [3]: significant activation; also recorded: activated

Molecule: Nc1nc2c(ncn2[C@@H]2O[C@@H]3COP(=O)(O)O[C@H]3[C@H]2O)c(=O)[nH]1 [cGMP]
- best activator (in words) [4]: highest activation and affinity
- nucleotide concentration at which maximal activation is attained [4]: 20 µM
- activation of E. coli UMP kinase (in words) [3]: significant activation

Molecule: Nc1nc2c(ncn2[C@@H]2O[C@H](COP(=O)(O)OP(=O)(O)OP(=O)(O)O)[C@@H](O)[C@H]2O)c(=O)[nH]1 [GTP]
- activation of UMP kinase (fold) ([2]; 2 mM ATP and 1 mM UTP): ten fold activation
- EC50 ([2]; 2 mM ATP and 1 mM UTP, read-out: half maximum activation concentration): 100 µM
- activity of UMP kinase in the absence of GTP relative to presence ([2]; absence of GTP): twenty times lower
- degree of activation by GTP (factor) [5]: 2
- degree of activation by GTP (factor) [4]: 3

Molecule: bovine serum albumin: protein additive tested as stabilizer
- stabilization of UMP kinase activity on storage (in words) [1]: ineffective

Molecule: O=c1ccn([C@@H]2O[C@H](COP(=O)(O)O)[C@@H](O)[C@H]2O)c(=O)[nH]1 [UMP]
- UMP concentration at which rates were maximal ([2]; absence of GTP, ATP 1 mM, rates decline at higher UMP): 50 to 70 µM
- Km ([2]; absence of GTP, ATP constant (1 mM), read-out: Km for UMP): ~8 µM
- UMP concentration at which saturation was attained ([2]; presence of GTP, ATP 1 mM): 0.2 mM

Molecule: Nc1nc2c(ncn2[C@@H]2O[C@H](COP(=O)(O)OP(=O)(O)NP(=O)(O)O)[C@@H](O)[C@H]2O)c(=O)[nH]1 [GMP-PNP]
- activation of UMP kinase by guanine nucleotides (in words) [2]: can activate at significant rates

Molecule: Nc1nc2c(ncn2[C@@H]2O[C@H](CO)[C@@H](O)[C@H]2O)c(=O)[nH]1 [guanosine]
- activation of E. coli UMP kinase (in words) [3]: significant activation

Molecule: Nc1nc2c(ncn2[C@H]2C[C@H](O)[C@@H](COP(=O)(O)OP(=O)(O)OP(=O)(O)O)O2)c(=O)[nH]1 [dGTP]
- activation of UMP kinase by guanine nucleotides (in words) [2]: effective but with lower affinities and extent of activation; also recorded: can activate at significant rates

Molecule: Nc1ncnc2c1ncn2[C@@H]1O[C@H](COP(=O)(O)OP(=O)(O)OP(=O)(O)O)[C@@H](O)[C@H]1O [ATP]
- Km ([2]; ATP varied, absence or presence of GTP (0.5 mM), UMP 1 mM, read-out: apparent Km for ATP): 900 µM

Molecule: O=c1ccn([C@@H]2O[C@H](COP(=O)(O)OP(=O)(O)OP(=O)(O)O)[C@@H](O)[C@H]2O)c(=O)[nH]1 [UTP]
- effect of UTP on UMP kinase activity (in words) [2]: antagonized the effect of GTP; also recorded: inhibits
- IC50 ([2]; at lower concentration of UMP (50 μM), read-out: I50 of UTP inhibition): 50 µM
- Km ([2]; presence of GTP, ATP 1 mM, without inhibition by excess of UMP, read-out: apparent Km for UTP): 30 µM
- stabilization of UMP kinase activity on storage (in words) [1]: stabilized considerably
- half maximal inactivation temperature ([6]; in the presence of UTP): over 70 °C
- Tm [7]: 67 °C

B1: UMP kinase from B. subtilis: recombinant pyrH gene product of B. subtilis overproduced in E. coli, hexamer (protein)
chain: T1 sequence (O31749 1-240)
- specific activity of the recombinant enzyme ([2]; 2 mM ATP, 1 mM UMP): 25 units/mg of protein
- specific activity of purified recombinant protein ([2]; "standard" assay conditions): 26 U/mg of protein
- specific activity of the purified enzyme ([2]; in the presence of GTP): 25 μmol/min^−1/mg of protein^−1
- initial UMP kinase activity recovered after storage ([1]; after 24 h, crude extract without UTP, room temperature, +4° C. or frozen): 15%
- stability in the absence of UTP (in words) ([1]; irrespective of storage temperature (+4° C., −20° C. or −80° C.)): unstable in the absence of the nucleotide
- half maximal inactivation temperature ([6]; in the absence of UTP): 42 °C

B2: UMP kinase from E. coli: comparison enzyme, bacterial UMP kinase from E. coli (protein, UniProt P0A7E9 2-241, looked up)
Uridylate kinase: ATNAKPVYKRILLKLSGEALQGTEGFGIDASILDRMAQEIKELVELGIQVGVVIGGGNLFRGAGLAKAGMNRVVGDHMGMLATVMNGLAMRDALHRAYVNARLMSAIPLNGVCDSYSWAEAISLLRNNRVVILSAGTGNPFFTTDSAACLRGIEIEADVVLKATKVDGVFTADPAKDPTATMYEQLTYSEVLEKELKVMDLAAFTLARDHKLPIRVFNMNKPGALRRVVMGEKEGTLITE
- specific activity [8]: 150 μmol/min^−1/mg of protein^−1

— patent publication US20020119506A1, “Genes encoding UMP kinase, methods for purifying UMP kinase and methods of characterizing UMP kinase” (INSTITUT PASTEUR, priority 2000, published 2002)
